# From US4442118A, “Aldose reductase inhibition by 1-(4-chlorobenzoyl)-5-methoxy-2-methyl-1H-indole-3-acetic acid” (Ayerst, McKenna & Harrison, Inc., priority 1981, dated 1984)
# Biological target: lens aldose reductase (Bos taurus, UniProt P16116)
# Assay: in vitro aldose reductase inhibition test (modified Hayman and Kinoshita procedure)
# Format: biochemical, bovine
# Experimental: In the present case the procedure of Hayman and Kinoshita is modified in that the final chromatography step is omitted in the preparation of the enzyme from bovine lens.
# The following results were obtained when indomethacin was evaluated in the above in vitro test: […]
smiles,measurement,value
"COc1ccc2c(c1)c(CC(=O)O)c(C)n2C(=O)c1ccc(Cl)cc1 [Indomethacin, 1-(4-Chlorobenzoyl)-5-methoxy-2-methyl-1H-indole-3-acetic acid]",inhibitor of lens aldose reductase (in words),potent inhibitor of lens aldose reductase
